According to US11400057B2, “Treatment of vulvar pain” (University of Rochester, priority 2018, dated 2022):
Entries after “also recorded” stand apart in the source; their conditions may differ.

Assays:
[1] = test system: interleukin-6 (IL-6) production by human vulvar fibroblasts; test: In vitro LPV model: IL-6 production by patient vestibular or vulvar fibroblasts; type: cell-based; conditions: for IL-6 production: pre-treatment regimen, 5 nM, activated with bradykinin (100 nM) 48 hr, vestibular and external vulvar fibroblasts, FIG. 4B; for IL-6 levels: post-treatment regimen: IL-1β 30 min first, then 5 nM for 18 hours plus booster dose for 6 hr, already activated cells, FIG. 4D
Description: (§1) FIGS. 4A, 4B, 4C, and 4D are a set of diagrams showing that PGE2 and IL-6 production is reduced by compounds of Formula (I). Patient vestibular or vulvar fibroblasts were pre-treated for 10 hours with Maresin land epi-Maresin 1 at a 5 nM concentration, then activated with IL-1β (Panel A; 10 pg/ml) or bradykinin (Panel B; 100 nM) for 48 hr. Culture media were collected and analyzed for PGE2 (Panel A) or IL-6 (Panel B) content. Patient fibroblasts were also activated first with IL-1β for 30 min then treated with 5 nM Maresin 1 for 18 hours, followed by a booster dose for 6 hr. Culture media were collected and analyzed for PGE2 (Panel C) or IL-6 (Panel D) content. Mean+/−SEM of n=3, ANOVA *p<0.05 vs. activation only (no compounds of Formula (I) (F (I))).
(§2) In this example, a fibroblast-based in vitro LPV model was established. Briefly, fibroblast strains were obtained from two regions (FIG. 1) of the lower genital tract of localized provoked vulvodynia (LPV) cases and pain-free controls in the manner described in Falsetta et al. Am J Obstet Gynecol 2015, vol. 213, pp. 38 e1-12 and Foster et al., Pain 2015, vol. 156, pp. 386-96.
(§3) Over 30 paired fibroblast strains obtained from LPV-afflicted cases (fulfilling Friedrich's Criteria)^25 and age/race-matched (critical variables influencing LPV),^26, 27 pain-free controls were obtained. All subjects who contributed to the library were premenopausal, denied oral corticosteroids, non-steroidal, immunomodulatory, or anti-inflammatory medication use, and reported an absence of systemic/cutaneous inflammatory conditions at the time of sample collection. Mechanical pain thresholds were determined (via a method of limits) (0.5-5 N) using a Wagner algometer. Fibroblast identity was confirmed by microscopy and fibroblast markers (vimentin, collagen); only low passage (˜4) cells are used.
(§4) In this example, assays were carried out to investigate the ability of compounds of Formula (I) to reduce pro-inflammatory and pro-pain mediator production from primary human cells in the in vitro LPV model described in Example 1.
(§5) The inventors used one of two treatment regimens proven effective in vulvar fibroblasts and other cells at low/nanomolar concentrations (1-100 nM): 1) overnight pre-treatment, followed by another treatment 30 min prior to stimulation with pro-inflammatory stimuli for 48 hr with a third dose of a compound of Formula (I) at 24 hr post-challenge, or 2) post-treatment a compound of Formula (I) after a 30 min pre-treatment with inflammatory stimuli, followed by a booster dose 18 hr later. Both treatment regimens are of interest, as compounds of Formula (I) are active throughout the inflammatory process.^5-7 Even the compound of Formula (I) administered after LPV onset are likely to prevent the worsening or spread of LPV pain.

[2] = test system: prostaglandin E2 (PGE2) production by human vulvar fibroblasts; test: In vitro LPV model: PGE2 production by patient vestibular or vulvar fibroblasts; type: cell-based; conditions: for PGE2 production: pre-treatment regimen, 5 nM, activated with IL-1β (10 pg/ml) 48 hr, vestibular and external vulvar fibroblasts, FIG. 4A; for PGE2 levels: post-treatment regimen: IL-1β 30 min first, then 5 nM for 18 hours plus booster dose for 6 hr, already activated cells, FIG. 4C
Description: as §1, §2, §3, §4, §5

[3] = test system: PGE2 production from mouse vulvar tissue; test: Mouse vulvar explants (4 mm punch biopsy) stimulated with IL-1β: PGE2 production; type: cell-based; conditions: FIG. 5
Description: FIG. 5 is a diagram showing that compounds of Formula (I) (F (I)) inhibit PGE2 production from mouse vulvar tissue. Mouse vulvar tissue (4 mm punch biopsies) was collected and bisected then pre-treated in culture medium with either Maresin 1 at indicated concentrations for 18 hours, followed by an additional 18 hours stimulation with IL-1β (10 pg/ml). Culture medium was collected and analyzed for PGE2 content. Mean+/−SEM; n=3 replicate cultures. ANOVA * p<0.05 vs. vehicle.
Inventors first confirmed that mouse vulvar tissues responded to compounds of Formula (I) treatment in vitro by culturing mouse vulvar explants (4 mm punch biopsy). The explants were stimulated with IL-1β, and then assays were carried to assess the ability of Maresin 1 to reduce PGE2 production under the established pre-treatment regimen.
It was also determined that these mice expressed several SPM receptors (e.g., ALX, GPR18). Therefore, inventors proceeded with testing responses to compounds of Formula (I) in the mouse model.

[4] = test system: vulvar allodynia (pain threshold); test: Mouse model of LPV: Zymosan-induced vulvar allodynia, pain threshold by electronic von Frey; type: in vivo, C57BL/6 mouse; conditions: C57BL/6 mice with established Zymosan-induced allodynia, topical daily 1 μg/mouse/day for 4 weeks
Source text: FIGS. 6A, 6B and 6C are a set of photographs and diagrams showing pain testing for in vivo mouse vulvodynia model. Panel A: After Zymosan injection, inflammation and redness become apparent. Arrow indicates injection site. Panel B: Image showing how an electronic von Frey hair (Mousemet) is used to apply force to the mouse vulva. Panel C: Schematic of in vivo mouse model to establish then resolve vulvar allodynia. FIG. 7 is a diagram showing representative pain profile for a C57BL/6 mouse. […] In the mouse model, Zymosan (a pro-inflammatory yeast cell wall preparation) was used to induce sustained vulvar allodynia, measured by pain threshold testing. Inventors initially used a manual von Frey system (MvF)^24, but later switched to an electronic system as detailed herein. […] However, inventors implemented several modifications to improve the robustness of the model including the following: 1) use a genetically tractable inbred strain; 2) validation of the use of an electronic von Frey (EvF) system; 3) assessment of the impact of behavioral conditioning on pain response; 4) weekly collection of vulvovaginal lavages for pro-inflammatory mediator quantification; and 5) testing the ability of a selected compound of Formula (I) (e.g., Maresin 1) to modulate pain and inflammation in our new model. […]

PGE2 in vaginal lavage = test: Mouse model of LPV: PGE2 content in vaginal lavage; type: in vivo, C57BL/6 mouse; conditions: C57BL/6 mice with established Zymosan-induced allodynia, topical daily 1 μg/mouse/day for 4 weeks, FIG. 8
Source text: FIG. 8 is a diagram showing that PGE2 in vaginal lavage is associated with pain threshold. After induction of allodynia for up to 6 weeks (indicated by reduced pain threshold, red line), Maresin 1 was applied to C57BL/6 mouse vulvas to reduce pain and increase pain threshold. PGE2 content in vaginal lavage samples (blue line) […], indicating pain-associated inflammation waning with treatment. SEM shown, n=8.
Using this approach, inventors confirmed that one could induce vulvar allodynia, measure pain responses via mechanical threshold determination, and assess treatment responses. However, inventors implemented several modifications to improve the robustness of the model including the following: 1) use a genetically tractable inbred strain; 2) validation of the use of an electronic von Frey (EvF) system; 3) assessment of the impact of behavioral conditioning on pain response; 4) weekly collection of vulvovaginal lavages for pro-inflammatory mediator quantification; and 5) testing the ability of a selected compound of Formula (I) (e.g., Maresin 1) to modulate pain and inflammation in our new model. […]

SMILES | IL-6 production [1] | PGE2 production [2] | PGE2 responses following IL-1β treatment ([3]; pre-treated 18 hours, then 18 hours IL-1β (10 pg/ml)) | lowest dose with significant suppression of PGE2 response ([3]; pre-treatment regimen, IL-1β (10 pg/ml)) | IL-6 levels [1] | IL-6 levels ([1]; listed as Maresin-1) | pain threshold ([4]; FIG. 7, 8) | pain threshold ([4]; FIG. 7, 8, listed as Maresin-1) | PGE2 levels in vulvovaginal lavage (PGE2 in vaginal lavage) | PGE2 levels in vulvovaginal lavage (PGE2 in vaginal lavage; listed as Maresin-1) | PGE2 levels [2] | PGE2 levels ([2]; listed as Maresin-1)
CC/C=C\C/C=C\C[C@H](O)\C=C/C=C/C=C/[C@@H](O)C/C=C\CCC(=O)O [epi-Maresin 1, 7S,14S-dihydroxy-docosa-4Z,8E,10E,12Z,16Z,19Z-hexaenoic acid] | significantly reduced | significantly reduced |  |  |  |  |  |  |  |  |  | 
CC/C=C\C/C=C\C[C@H](O)\C=C/C=C/C=C/[C@H](O)C/C=C\CCC(=O)O [Maresin 1, 7R,14S-dihydroxy-docosa-4Z,8E,10E,12Z,16Z,19Z-hexaenoic acid] | significantly reduced | significantly reduced | significantly suppressed | 1 nM | significantly reduced | highly effective in reducing | complete restoration to the pre-induction thresholds; also recorded: values returned to baseline | increased pain thresholds | suppressed and maintained at levels below baseline | suppressing PGE2 levels | significantly reduced | highly effective in reducing
